# Data from ChEMBL document CHEMBL5335823, “Synthesis, biological evaluation, and stability studies of raloxifene mono- and bis-sulfamates as dual-targeting agents” (Bioorg Med Chem, 2024).
# What was measured:
# CCRF-CEM = test: Antiproliferative activity against human CCRF-CEM cells assessed as inhibition of cell growth measured after 72 hrs by CellTiter-Glo assay; type: functional
# T47D [1] = test: Antiproliferative activity against human T47D cells assessed as inhibition of cell growth incubated for 5 days by crystal violet staining based analysis; type: functional; conditions: 120 h, time 5 day
# DU-145 = test: Antiproliferative activity against human DU-145 cells assessed as inhibition of cell growth measured after 72 hrs by CellTiter-Glo assay; type: functional
# [2] = Stability of the compound in wet DMSO-d6 assessed as parent compound remaining at 7.9 umol measured at room temperature after 6 days by 1HNMR spectroscopy; type: physicochemical; conditions: at 7.9 µmol, time 6 day, read-out: Stability
# HCT-116 = test: Antiproliferative activity against human HCT-116 cells assessed as inhibition of cell growth measured after 72 hrs by CellTiter-Glo assay; type: functional
# Steryl-sulfatase [3] = target: T1, Steryl-sulfatase (Homo sapiens, UniProt P08842); test: Inhibition of STS in human JEG-3 cells assessed as inhibition of estrone E1 formation using [3H]estrone sulfate as substrate incubated for 20 hrs in presence of E1S by scintillation spectrometry; type: cell-based
# T1 sequence (P08842 whole entry): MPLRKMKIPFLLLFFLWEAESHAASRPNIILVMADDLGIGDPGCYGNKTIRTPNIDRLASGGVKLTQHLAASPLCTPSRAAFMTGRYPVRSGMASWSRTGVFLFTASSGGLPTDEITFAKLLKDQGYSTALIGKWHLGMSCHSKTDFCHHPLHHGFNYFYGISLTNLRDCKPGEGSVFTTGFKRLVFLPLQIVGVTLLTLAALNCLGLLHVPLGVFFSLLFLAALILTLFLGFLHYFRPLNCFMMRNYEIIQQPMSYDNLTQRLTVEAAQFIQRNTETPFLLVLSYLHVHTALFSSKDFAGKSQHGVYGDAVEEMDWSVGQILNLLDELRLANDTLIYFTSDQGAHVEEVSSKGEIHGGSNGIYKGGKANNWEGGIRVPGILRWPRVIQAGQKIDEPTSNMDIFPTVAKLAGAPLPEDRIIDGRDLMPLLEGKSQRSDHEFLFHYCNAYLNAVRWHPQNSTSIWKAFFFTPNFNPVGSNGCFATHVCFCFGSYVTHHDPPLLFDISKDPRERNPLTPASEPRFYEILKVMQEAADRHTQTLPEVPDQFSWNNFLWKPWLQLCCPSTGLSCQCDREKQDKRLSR
# SF-539 = test: Antiproliferative activity against human SF-539 cells assessed as inhibition of cell growth measured after 72 hrs by CellTiter-Glo assay; type: functional
# MDA-MB-231 = test: Antiproliferative activity against human MDA-MB-231 cells assessed as inhibition of cell growth measured after 72 hrs by CellTiter-Glo assay; type: functional
# OVCAR-4 = test: Antiproliferative activity against human OVCAR-4 cells assessed as inhibition of cell growth measured after 72 hrs by CellTiter-Glo assay; type: functional
# SN12C = test: Antiproliferative activity against human SN12C cells assessed as inhibition of cell growth measured after 72 hrs by CellTiter-Glo assay; type: functional
# Steryl-sulfatase [4] = target: T1, Steryl-sulfatase; test: Inhibition of STS in human JEG-3 cell lysates assessed as inhibition of estrone E1 formation using [3H]estrone sulfate as substrate incubated for 1 hr in presence of E1S by scintillation spectrometry; type: subcellular
# [5] = Stability of the compound in wet DMSO-d6 assessed as parent compound remaining at 7.9 umol measured at room temperature after 30 days by 1HNMR spectroscopy; type: physicochemical; conditions: at 7.9 µmol, time 30 day, read-out: Stability
# HOP-62 = test: Antiproliferative activity against human HOP-62 cells assessed as inhibition of cell growth measured after 72 hrs by CellTiter-Glo assay; type: functional
# UACC-62 = test: Antiproliferative activity against human UACC-62 cells assessed as inhibition of cell growth measured after 72 hrs by CellTiter-Glo assay; type: functional
# [6] = Stability of the compound in wet DMSO-d6 assessed as parent compound remaining at 6.2 umol measured at room temperature after 6 days by 1HNMR spectroscopy; type: physicochemical; conditions: at 6.2 µmol, time 6 day, read-out: Stability
# [7] = Stability of the compound in wet DMSO-d6 assessed as parent compound remaining at 6.2 umol measured at room temperature after 45 days by 1HNMR spectroscopy; type: physicochemical; conditions: at 6.2 µmol, time 45 day, read-out: Stability
# [8] = target: T2, Estrogen receptor (Homo sapiens) (UniProt P03372); test: Antagonist activity at ER-alpha (unknown origin) at 10 microM by ER-alpha coactivator assay
# T2 sequence (whole entry): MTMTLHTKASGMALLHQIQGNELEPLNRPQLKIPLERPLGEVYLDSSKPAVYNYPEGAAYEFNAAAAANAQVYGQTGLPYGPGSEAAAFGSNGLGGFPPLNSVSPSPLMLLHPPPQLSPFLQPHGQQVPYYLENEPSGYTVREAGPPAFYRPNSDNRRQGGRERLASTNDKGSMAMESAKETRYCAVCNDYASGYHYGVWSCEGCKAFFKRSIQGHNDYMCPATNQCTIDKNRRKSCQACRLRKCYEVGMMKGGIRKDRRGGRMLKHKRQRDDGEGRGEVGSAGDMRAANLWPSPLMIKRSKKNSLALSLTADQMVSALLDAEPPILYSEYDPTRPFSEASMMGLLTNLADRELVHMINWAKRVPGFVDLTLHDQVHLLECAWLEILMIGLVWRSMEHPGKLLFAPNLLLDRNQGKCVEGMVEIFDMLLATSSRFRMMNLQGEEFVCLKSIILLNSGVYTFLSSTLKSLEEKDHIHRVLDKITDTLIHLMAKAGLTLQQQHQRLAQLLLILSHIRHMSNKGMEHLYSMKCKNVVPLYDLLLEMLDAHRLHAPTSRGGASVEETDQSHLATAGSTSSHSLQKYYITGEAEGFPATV
# T47D [9] = test: Antiproliferative activity against human T47D cells assessed as inhibition of cell growth at 10 uM incubated for 5 days by crystal violet staining based analysis; type: functional; conditions: 120 h, time 5 day
# [10] = Stability of the compound in wet DMSO-d6 assessed as parent compound remaining at 8 umol measured at room temperature after 45 days by 1HNMR spectroscopy; type: physicochemical; conditions: at 8 µmol, time 45 day, read-out: Stability
smiles,measurement,setting,value
NS(=O)(=O)Oc1ccc(-c2sc3cc(OS(N)(=O)=O)ccc3c2C(=O)c2ccc(OCCN3CCCCC3)cc2)cc1,GI50,CCRF-CEM,9.02 µM
same,GI50,T47D [1],7.12 µM
same,GI50,DU-145,16 µM
same,"remaining at 144 h, 7.9 umol",[2],27%
same,GI50,HCT-116,14.6 µM
same,IC50,Steryl-sulfatase [3]; read-out: IC50,0.0122 µM
same,GI50,SF-539,13.1 µM
same,GI50,MDA-MB-231,1.34 µM
same,GI50,OVCAR-4,10.6 µM
same,GI50,SN12C,1.61 µM
same,IC50,Steryl-sulfatase [4]; read-out: IC50,0.0966 µM
same,"remaining at 720 h, 7.9 umol",[5],0%
same,GI50,HOP-62,14.8 µM
same,GI50,UACC-62,1.47 µM
NS(=O)(=O)Oc1ccc2c(C(=O)c3ccc(OCCN4CCCCC4)cc3)c(-c3ccc(O)cc3)sc2c1,"remaining at 144 h, 6.2 umol",[6],70%
same,IC50,Steryl-sulfatase [3]; read-out: IC50,0.332 µM
same,IC50,Steryl-sulfatase [4]; read-out: IC50,2.08 µM
same,"remaining at 1080 h, 6.2 umol",[7],18%
NS(=O)(=O)Oc1ccc(-c2sc3cc(O)ccc3c2C(=O)c2ccc(OCCN3CCCCC3)cc2)cc1,inhibition,[8],27%
same,inhibition at 10 µM,T47D [9],12%
same,IC50,Steryl-sulfatase [3]; read-out: IC50,0.607 µM
same,"remaining at 1080 h, 8 umol",[10],12%
same,IC50,Steryl-sulfatase [4]; read-out: IC50,3.4 µM
Cl.O=C(c1ccc(OCCN2CCCCC2)cc1)c1c(-c2ccc(O)cc2)sc2cc(O)ccc12 [RALOXIFENE HYDROCHLORIDE],IC50,Steryl-sulfatase [4]; jeg-3,Not Active
O=C(c1ccc(OCCN2CCCCC2)cc1)c1c(-c2ccc(O)cc2)sc2cc(O)ccc12 [RALOXIFENE],GI50,T47D [1],6.89 µM
same,inhibition at 10 µM,T47D [9],78%
same,IC50,Steryl-sulfatase [3]; jeg-3,Not Active
same,IC50,Steryl-sulfatase [4]; jeg-3,Not Active
